Earlier results, collected in patent publication US20130007910A1, “STRUCTURE OF THE BRASS[…] BRI1, AND MODULATION OF BRI1 SIGNALING” (Salk Institute for Biological Studies (027731), priority 2011, published 2013).

Molecular target: T1, BRI1 (Arabidopsis thaliana, UniProt O22476)
T1 sequence (O22476 24-1196): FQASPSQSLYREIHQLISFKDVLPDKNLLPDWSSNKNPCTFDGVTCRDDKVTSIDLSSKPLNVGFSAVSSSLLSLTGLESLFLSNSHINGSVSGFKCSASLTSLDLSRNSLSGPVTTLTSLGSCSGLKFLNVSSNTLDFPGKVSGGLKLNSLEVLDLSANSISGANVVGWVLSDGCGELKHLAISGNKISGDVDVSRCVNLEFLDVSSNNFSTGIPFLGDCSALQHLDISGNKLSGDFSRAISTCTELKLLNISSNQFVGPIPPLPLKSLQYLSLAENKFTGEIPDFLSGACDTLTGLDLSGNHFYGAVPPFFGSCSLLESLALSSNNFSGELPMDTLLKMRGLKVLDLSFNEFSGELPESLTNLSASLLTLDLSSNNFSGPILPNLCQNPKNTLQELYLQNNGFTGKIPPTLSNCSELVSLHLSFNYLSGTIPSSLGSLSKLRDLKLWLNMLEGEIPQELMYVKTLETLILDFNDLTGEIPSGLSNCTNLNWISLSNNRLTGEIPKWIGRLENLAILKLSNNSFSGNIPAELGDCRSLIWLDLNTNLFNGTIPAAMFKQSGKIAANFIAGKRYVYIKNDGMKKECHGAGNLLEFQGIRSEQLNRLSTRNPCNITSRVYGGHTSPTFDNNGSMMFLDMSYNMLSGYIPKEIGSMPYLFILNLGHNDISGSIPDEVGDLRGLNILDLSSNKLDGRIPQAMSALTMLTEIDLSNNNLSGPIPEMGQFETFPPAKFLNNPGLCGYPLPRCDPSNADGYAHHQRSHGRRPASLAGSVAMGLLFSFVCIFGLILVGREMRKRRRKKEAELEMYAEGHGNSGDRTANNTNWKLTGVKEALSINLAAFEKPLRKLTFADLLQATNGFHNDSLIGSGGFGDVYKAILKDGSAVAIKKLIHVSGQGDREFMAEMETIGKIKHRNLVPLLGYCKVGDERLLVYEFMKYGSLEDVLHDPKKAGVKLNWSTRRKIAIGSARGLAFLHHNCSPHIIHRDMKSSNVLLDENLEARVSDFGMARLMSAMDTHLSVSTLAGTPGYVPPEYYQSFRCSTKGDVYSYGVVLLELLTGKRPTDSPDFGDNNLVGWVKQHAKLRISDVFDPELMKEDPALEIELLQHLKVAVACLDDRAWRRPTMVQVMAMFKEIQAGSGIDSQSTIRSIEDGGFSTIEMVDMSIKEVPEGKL
Settings: for recognition of steroid ligand by BRI1: known behaviour, explained from the co-crystal structure (alkyl side chain pocket, B-ring contacts)

Structure (SMILES) | affinity of binding to BRI1 (stated in words, no method or figure given) | recognition of steroid ligand by BRI1
CC(C)[C@H](C)[C@@H](O)[C@H](O)[C@@H](C)[C@H]1CC[C@H]2[C@@H]3COC(=O)[C@H]4C[C@H](O)[C@H](O)C[C@]4(C)[C@H]3CC[C@]12C [brassinolide] | nanomolar | –
CC(C)[C@H](C)[C@@H](O)[C@H](O)[C@@H](C)[C@H]1CC[C@H]2[C@@H]3CC(=O)[C@H]4C[C@H](O)[C@H](O)C[C@]4(C)[C@H]3CC[C@]12C [castasterone] | – | tolerated by BRI1
C[C@H]([C@H](O)CCC(C)(C)O)[C@H]1CC[C@@]2(O)C3=CC(=O)[C@@H]4C[C@@H](O)[C@@H](O)C[C@]4(C)[C@H]3CC[C@]12C [ecdysone] | – | cannot be recognized by BRI1
